Reference: PMC9239997, “Structural basis for mitoguardin-2 mediated lipid transport at ER-mitochondrial membrane contact sites” (Nature Communications, 2022)
Changes are numbered by the printed parent chain. [ ]: non-standard residue; d: D form. pS = N[C@@H](COP(=O)(O)O)C(=O)O

Key:
zMiga2-GST = target: T1, zMiga2-GST (Danio rerio, UniProt Q5BLE2); experiment: preloading, glutathione bead wash, Clear Native-PAGE fluorescence; type: binding; conditions: labelled compound; probe of the displacement assay
T1 construct: gene miga2; LD targeting domain, residues 310-568, C-terminal GST fusion kept; E. coli
T1 sequence (Q5BLE2 310-568): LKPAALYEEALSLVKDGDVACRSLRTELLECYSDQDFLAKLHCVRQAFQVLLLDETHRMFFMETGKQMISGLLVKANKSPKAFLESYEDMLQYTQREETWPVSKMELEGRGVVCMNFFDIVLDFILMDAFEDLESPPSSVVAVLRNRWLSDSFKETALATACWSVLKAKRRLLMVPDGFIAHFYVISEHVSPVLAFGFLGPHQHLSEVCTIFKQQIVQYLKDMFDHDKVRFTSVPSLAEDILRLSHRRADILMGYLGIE

zMiga2 [1] = target: T2, zMiga2 (Danio rerio, UniProt Q5BLE2, V430W); experiment: Clear Native-PAGE, NBD fluorescence; type: binding; conditions: labelled compound; pH 7.5, on ice, 2 h
T2 construct: gene miga2; LD targeting domain, residues 310-568; E. coli BL21(DE3); His6 tag cleaved by TEV
T2 sequence (Q5BLE2 310-568 V430W): T1 sequence (Q5BLE2 310-568) with V121W

zMiga2 [2] = target: T3, zMiga2 (Danio rerio, UniProt Q5BLE2, V430W/F488W); experiment: Clear Native-PAGE, NBD fluorescence; type: binding; conditions: labelled compound; pH 7.5, on ice, 2 h
T3 construct: gene miga2; LD targeting domain, residues 310-568; E. coli BL21(DE3); His6 tag cleaved by TEV
T3 sequence (Q5BLE2 310-568 V430W/F488W): T1 sequence (Q5BLE2 310-568) with V121W, F179W

mMIGA1^313–573 = target: T4, mMIGA1^313–573 (Mus musculus, UniProt Q4QQM5); experiment: Clear Native-PAGE, NBD fluorescence; type: binding; conditions: labelled compound; pH 7.5, on ice, 2 h
T4 construct: gene Miga1; LD targeting domain, residues 313-573; E. coli; His6 tag cleaved by TEV
T4 sequence (Q4QQM5 313-573): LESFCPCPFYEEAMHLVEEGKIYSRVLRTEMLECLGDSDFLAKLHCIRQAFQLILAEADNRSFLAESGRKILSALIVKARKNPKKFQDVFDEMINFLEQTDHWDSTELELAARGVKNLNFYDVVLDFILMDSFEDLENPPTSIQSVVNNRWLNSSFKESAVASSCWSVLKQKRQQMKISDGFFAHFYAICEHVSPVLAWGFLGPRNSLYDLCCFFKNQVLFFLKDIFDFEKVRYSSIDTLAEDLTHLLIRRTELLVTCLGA

zMiga2 [3] = target: T5, zMiga2 (Danio rerio, UniProt Q5BLE2, W409A); experiment: Clear Native-PAGE, NBD fluorescence; type: binding; conditions: labelled compound; pH 7.5, on ice, 2 h
T5 construct: gene miga2; LD targeting domain, residues 310-568; E. coli BL21(DE3); His6 tag cleaved by TEV
T5 sequence (Q5BLE2 310-568 W409A): T1 sequence (Q5BLE2 310-568) with W100A

zMiga2 [4] = target: T6, zMiga2 (Danio rerio, UniProt Q5BLE2); experiment: Clear Native-PAGE, NBD fluorescence; type: binding; conditions: labelled compound; pH 7.5, on ice, 2 h; hydrophobic cavity
T6 construct: gene miga2; LD targeting domain, residues 310-568; E. coli BL21(DE3); His6 tag cleaved by TEV
T6 sequence (Q5BLE2 310-568): T1 sequence (Q5BLE2 310-568)

zMiga2 [5] = target: T7, zMiga2 (Danio rerio, UniProt Q5BLE2, F488W); experiment: Clear Native-PAGE, NBD fluorescence; type: binding; conditions: labelled compound; pH 7.5, on ice, 2 h
T7 construct: gene miga2; LD targeting domain, residues 310-568; E. coli BL21(DE3); His6 tag cleaved by TEV
T7 sequence (Q5BLE2 310-568 F488W): T1 sequence (Q5BLE2 310-568) with F179W

[6] = target: T8, MSP domain of mouse VAPB (residues 1-125), K87L/K118L (mouse (Mus musculus), UniProt Q9QY76 1-125, K87L | K118L); experiment: ITC; Microcal ITC200, 25 °C, buffer C (25 mM Tris-HCl pH 7.5, 150 mM NaCl, 4 mM β-mercaptoethanol); 20 injections of 2 μl; 1:1 binding model; conditions: both partners purified
T8 construct: vesicle-associated membrane protein-associated protein B/C (VAPB), mouse, MSP domain, residues 1-125, K87L/K118L; also called mVAPB K87L/K118L

[7] = target: T9, MSP domain of mouse VAPB (residues 1-125), K43L/K45L (mouse (Mus musculus), UniProt Q9QY76 1-125, K43L | K45L); experiment: as above; conditions: both partners purified
T9 construct: vesicle-associated membrane protein-associated protein B/C (VAPB), mouse, MSP domain, residues 1-125, K43L/K45L; also called mVAPB K43L/K45L

[8] = target: T10, MSP domain of mouse VAPB (residues 1-125) (mouse (Mus musculus), UniProt Q9QY76 1-125); experiment: as above; conditions: both partners purified
T10 construct: vesicle-associated membrane protein-associated protein B/C (VAPB), mouse, MSP domain, residues 1-125; In the liposome clustering (DLS) and tethered lipid transfer assays a His-tagged form (His-mVAPB) was used; also called mVAPB; wild-type mVAPB
T10 sequence (Q9QY76 1-125): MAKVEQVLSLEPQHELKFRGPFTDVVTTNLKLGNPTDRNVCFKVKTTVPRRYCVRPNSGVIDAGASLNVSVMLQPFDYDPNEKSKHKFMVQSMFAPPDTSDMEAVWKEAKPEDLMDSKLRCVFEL

T9 sequence (Q9QY76 1-125 K43L/K45L): as the sequence (Q9QY76 1-125) above, with K43L, K45L counted along it
T8 sequence (Q9QY76 1-125 K87L/K118L): as the sequence (Q9QY76 1-125) above, with K87L, K118L counted along it

CCCCCCCCCCCCCCCC(=O)OC[C@H](COP(=O)([O-])OCC[N+](C)(C)C)OC(=O)CCCCCCCCCCCNc1ccc([N+](=O)[O-])c2nonc12 [NBD-PC, 1-palmitoyl-2-{12-[(7-nitro-2-1,3-benzoxadiazol-4-yl)amino]dodecanoyl}-sn-glycero-3-phosphocholine]
preloading, glutathione bead wash, Clear Native-PAGE fluorescence (zMiga2-GST): The NBD-PC bound zMiga2 was incubated with natural lipids across a range of concentrations

CCCCCCCC/C=C\CCCCCCCC(=O)OC[C@H](COP(=O)(O)OCCNc1ccc([N+](=O)[O-])c2nonc12)OC(=O)CCCCCCC/C=C\CCCCCCCC [NBD-PE, 1,2-dioleoyl-sn-glycero-3-phosphoethanolamine-N-(7-nitro-2-1,3-benzoxadiazol-4-yl)]
lipid binding relative to WT (zMiga2 [1]): the V430W or F488W single mutant showed a slight decrease in NBD-PE binding
lipid binding relative to WT (zMiga2 [2]): double mutant showed decreased lipid-binding that was less than half of that of the wild type
Clear Native-PAGE, NBD fluorescence (mMIGA1^313–573): NBD-PE binding by MIGA1 was markedly lower than that by MIGA2
NBD-PE binding relative to WT (zMiga2 [3]): ~ 2 fold
Clear Native-PAGE, NBD fluorescence (zMiga2 [4]): explored the ability of the mutant proteins to interact with NBD-PE
lipid binding relative to WT (zMiga2 [5]): the V430W or F488W single mutant showed a slight decrease in NBD-PE binding

B1: phosphorylated FFAT motif peptide of mouse MIGA2 (residues 289-298) (peptide)
peptide: Ac-SED[pS]FF[pS]ATE-NH2
SMILES: CC(=O)N[C@@H](CO)C(=O)N[C@@H](CCC(=O)O)C(=O)N[C@@H](CC(=O)O)C(=O)N[C@@H](COP(=O)(O)O)C(=O)N[C@@H](Cc1ccccc1)C(=O)N[C@@H](Cc1ccccc1)C(=O)N[C@@H](COP(=O)(O)O)C(=O)N[C@@H](C)C(=O)N[C@H](C(=O)N[C@@H](CCC(=O)O)C(N)=O)[C@@H](C)O
notes: also called mMIGA2^pFFAT; phosphorylated FFAT peptide; source: synthetic peptide, purified by HPLC
fold lower binding affinity than wild type mVAPB [6]: 3 fold
fold lower binding affinity than wild type mVAPB [7]: 5 fold
Kd [8]: 1700 ± 200 nM
